{"source": "patent US8183409B2", "about": "“High yield and rapid synthesis methods for producing metallo-organic salts” (Osteologix A/S, priority 2004, dated 2012)", "settings": "pH 7.5"}
{"smiles": "O=C([O-])/C=C\\C(=O)[O-].[Sr+2]", "note": "[Maleate, strontium maleate]", "values": [{"measurement": "solubility in buffered solution compared with pure water", "value": "decreased solubility"}]}
